Reference: patent US12577247B2 (BUGWORKS RESEARCH, INC., priority 2021, dated 2026)

Legend:
A2A receptor = target: T1, A2A receptor (Homo sapiens, UniProt P29274); assay: A2aR antagonism IC50, cAMP TR-FRET in HEK-293 cells, high concentration of adenosine (30 μM); format: cell-based; details: HEK-293 cells expressing A2A receptor; agonist adenosine 30 μM; 2% HSA; inhibition of cAMP; read-out: A2AR IC50 (nM) (@30 μM Adenosine);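 further: compounds added 10 min before adenosine, then 30 min stimulation at room temperature in buffer with 100 µM rolipram and 30 µM EHNA, signal read 1 h after detection reagents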
T1 construct: host or cells: HEK-293

[1] = Metabolic stability and intrinsic clearance in human hepatocytes (with IVIVE); format: in vitro ADME; details: Human hepatocytes
Protocol: (§1) The metabolic stability was expressed as the percentage of parent remaining is calculated from the peak area ratio of NCE remaining after incubation (tx) compared to the time zero (t0) incubation. The percentage of parent test compound remaining at each time point was calculated by comparing the peak area ratio of test compound after incubation (tx) with peak area of time zero (t0) incubation. Similarly, half-life (t½) was calculated using following equation:
(§2) [formula] The intrinsic clearance (Clint) was calculated using the following equations:
(§3) [formula] Scaling factors to represent […] million cells/gm liver and liver/kg body wt.

Human hepatocytes = assay: as above; format: in vitro ADME; details: Human; for Predicted CLh: IVIVE from hepatocyte CLint; for Hepatocyte Clint: Table 6 (IVIVE)
Protocol: as §1, §2, §3

Rat hepatocytes = assay: Metabolic stability and intrinsic clearance in rat hepatocytes (with IVIVE); format: in vitro ADME; details: Rat; for Predicted CLh: IVIVE from hepatocyte CLint; for Hepatocyte Clint: Table 6 (IVIVE)
Protocol: as §1, §2, §3

[2] = as above; format: in vitro ADME; details: Rat hepatocytes
Protocol: as §1, §2, §3

[3] = Pharmacokinetic study in mice; format: in vivo, CD1 mice; details: for Cmax / Tmax: po
Protocol: (§4) Intravenous (i.v) and Oral formulations for pharmacokinetic (PK) studies was formulated in different vehicles and excipients to achieve the desirable solubility for intravenous and Oral routes of administration.
(§5) Appropriate amount of the test compound was weighed and dissolved in required volume of the vehicles, followed by vertexing for a few seconds to dissolve the compound. Then the solution (or) suspension was sonicated at room temperature for 5 minutes to obtain a visually clear solution and or homogenous suspension. All the formulations were prepared freshly at room temperature before dosing.
(§6) The rodent pharmacokinetic studies were carried out in male Sprague-Dawley (SD) rats (8-12 weeks of age, weighing 280±20 g at the time of dosing) and CD1 mice (8-12 weeks of age, weighing 30-35 g body weight at the time of dosing) to estimate the plasma clearance, volume of distribution and terminal half-life, area under curve (AUC) and peak plasma concentration (Cmax) and time of peak plasma concentration (Tmax) following intravenous and oral routes of administration. The detailed experimental design is described in the Table 8 below.
(§7) Rats were anaesthetized by Isoflurane anaesthesia. The jugular and femoral veins of rat were cannulated, and the study was performed 48 h post cannulation. At each time point about 100 μL, of rat blood was collected from the jugular vein into a labelled microfuge tube containing 200 mM K2EDTA solution (20 μL, per mL of blood) and equivalent volume of heparinized saline was replaced following sample collection. Similarly, 25 μL, of mice blood was collected from the saphenous vein into a labelled microfuge tube containing 200 mM K2EDTA solution
(§8) Serial blood sampling method was used for blood collection. Blood samples were collected at pre-dose, 0.25 h, 0.5, 1, 2, 4, 6, 8 and 24-hours post dose. The blood samples were processed to obtain the plasma samples within 30 min of scheduled sampling time. All plasma samples were stored −70° C. until bioanalysis.
(§9) Plasma samples were analysed for a fit-for purpose LC-MS/MS method with a lower limit of quantification. The pharmacokinetic parameters were calculated using the non-compartmental analysis tool of validated Phoenix® WinNonlin® software (Certara, USA version 8.4) with linear up and log down method for estimating AUC.
(§10) All animals in intravenous (IV bolus) group were under fed state and animals in oral groups were fasted overnight (min 12 hr) before dose administration and food was provided 4 h post dose administration. All animals were received water ad libitum during the study period. The mean (±SD) pharmacokinetic parameters of Example 13, Example 122b & Example 39 following IV bolus and Oral dose administration in Mice/Rat and Dog is provided in Table-9.

hERG potassium channel = target: T2, hERG potassium channel (Homo sapiens, UniProt Q12809); assay: hERG inhibition assay, Qpatch HTX automated electrophysiology; format: cell-based; details: CHO cell line stably expressing hERG; whole-cell patch clamp; room temperature
T2 construct: a Chinese Hamster Ovary cell line stably expressing the full-length hERG potassium channel; expressed in transfected cells; host or cells: Chinese Hamster Ovary cell line
Protocol: The representative compounds of formula I were tested for inhibition of the human ether a go-go related gene (hERG) K+ channel using Qpatch HTX automated electrophysiology. 6-Point concentration-response curves were generated using three-fold serial dilutions from a maximum final test concentration of […] and the results are presented in Table 3.
Compounds were solubilised to 100 mM in DMSO before dilution in HBPS to 100 μM. […] Electrophysiological recordings were made from a Chinese Hamster Ovary cell line stably expressing the full-length hERG potassium channel. Single cell ionic currents were measured in whole-cell patch clamp configuration at room temperature (21-23° C.) using the Qpatch HTX platform (Sophion). Intracellular solution contained (mM): 120 KF, 20 KCl, 10 EGTA, 10 HEPES and was buffered to pH 7.3. […] Cells were clamped at a holding potential of −80 mV. Cells were stepped to +20 mV for 2 s then −40 mV for 3 s before returning to the holding potential. This sweep was repeated 10 times at 10 s intervals. hERG currents were measured from the tail step and referenced to the holding current. Compounds were then incubated for 2 minutes prior to a second measurement of ion channel current using an identical pulse train.

[4] = Pharmacokinetic study in rats; format: in vivo, male Sprague-Dawley (SD) rats; details: for Vd / clearance / half-life / Cmax / Tmax / bioavailability: male, Sprague-Dawley, plasma; for Vd: read-out: Vss; for Cmax / Tmax: p.o; for Cmax: read-out: Cmax (head Co*/); for Tmax: read-out: Tmax (head Tma); for bioavailability: rat
Protocol: as §4, §5, §6, §7, §8, §9, §10

[5] = Plasma protein binding, equilibrium dialysis, rat; format: in vitro ADME; details: plasma (10% plasma, extrapolated to 100% plasma), Sprague-Dawley plasma, 18 hours at 37° C.
Protocol: Protein binding is measured using the equilibrium dialysis technique. Compound is added to 10% plasma giving a concentration of 10 μM and dialysed with isotonic buffer for 18 hours at 37° C. The plasma and buffer solutions are analysed using generic LC UV/MS and the first apparent binding constant for the compound derived. The binding constant is then used to determine the % free in 100% plasma
The percentage of plasma bound/unbound fraction preparation was calculated as follows
[formula] [formula] where, • Tc=Total plasma concentration was determined by the calculated concentration on the plasma side of the chamber • Fc=[…] was determined by the calculated concentration on the buffer side of the chamber • To=Total compound concentration determined before analysis.

[6] = CD1, mouse, plasma, 30 mg/kg, p.o, 30 mg/kg, read-out: Cmax (head Co*/)
[7] = CD1, mouse, plasma, 30 mg/kg, p.o, 30 mg/kg, read-out: Tmax (head Tma)
[8] = Rat, IV bolus, Table 6, read-out: T1/2 (IV bolus) (converted)
[9] = oral, Rat, Table 6, read-out: % F
[10] = oral, Rat, oral vs IV bolus, doses per compound, read-out: % F (bioavailability)
[11] = CD1, mouse, plasma, iv, i.v, 15 mg/kg

T2 sequence (Q12809 whole entry): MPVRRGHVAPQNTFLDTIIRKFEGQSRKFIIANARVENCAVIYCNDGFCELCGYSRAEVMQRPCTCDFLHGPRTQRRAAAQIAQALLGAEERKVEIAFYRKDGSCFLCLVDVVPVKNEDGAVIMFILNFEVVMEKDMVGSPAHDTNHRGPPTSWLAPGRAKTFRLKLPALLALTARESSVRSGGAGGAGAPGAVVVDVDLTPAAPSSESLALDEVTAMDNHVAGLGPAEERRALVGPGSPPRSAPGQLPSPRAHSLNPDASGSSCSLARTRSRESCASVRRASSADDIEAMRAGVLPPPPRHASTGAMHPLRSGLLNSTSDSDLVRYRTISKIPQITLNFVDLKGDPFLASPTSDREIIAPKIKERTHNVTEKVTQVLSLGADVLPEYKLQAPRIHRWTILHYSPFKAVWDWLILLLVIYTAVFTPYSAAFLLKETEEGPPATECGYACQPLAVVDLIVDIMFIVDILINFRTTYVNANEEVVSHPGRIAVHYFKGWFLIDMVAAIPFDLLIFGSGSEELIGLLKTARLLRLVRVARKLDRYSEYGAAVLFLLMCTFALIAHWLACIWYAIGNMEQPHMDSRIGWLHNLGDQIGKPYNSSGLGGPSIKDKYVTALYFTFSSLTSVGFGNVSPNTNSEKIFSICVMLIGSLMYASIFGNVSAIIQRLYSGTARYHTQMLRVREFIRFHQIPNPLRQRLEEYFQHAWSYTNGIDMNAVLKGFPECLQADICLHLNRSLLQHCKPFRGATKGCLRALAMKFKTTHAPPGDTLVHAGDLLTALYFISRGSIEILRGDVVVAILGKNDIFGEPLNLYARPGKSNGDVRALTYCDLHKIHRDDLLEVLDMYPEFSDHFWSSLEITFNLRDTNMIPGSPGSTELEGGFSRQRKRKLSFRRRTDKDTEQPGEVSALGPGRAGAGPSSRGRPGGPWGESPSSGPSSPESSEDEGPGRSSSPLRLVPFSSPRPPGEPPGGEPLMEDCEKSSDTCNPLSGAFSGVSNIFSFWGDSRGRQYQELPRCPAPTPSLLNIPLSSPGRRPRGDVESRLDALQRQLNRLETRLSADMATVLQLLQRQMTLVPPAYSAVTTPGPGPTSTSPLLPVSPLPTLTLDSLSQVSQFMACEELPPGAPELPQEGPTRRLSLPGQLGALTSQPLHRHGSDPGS
T1 sequence (P29274 whole entry): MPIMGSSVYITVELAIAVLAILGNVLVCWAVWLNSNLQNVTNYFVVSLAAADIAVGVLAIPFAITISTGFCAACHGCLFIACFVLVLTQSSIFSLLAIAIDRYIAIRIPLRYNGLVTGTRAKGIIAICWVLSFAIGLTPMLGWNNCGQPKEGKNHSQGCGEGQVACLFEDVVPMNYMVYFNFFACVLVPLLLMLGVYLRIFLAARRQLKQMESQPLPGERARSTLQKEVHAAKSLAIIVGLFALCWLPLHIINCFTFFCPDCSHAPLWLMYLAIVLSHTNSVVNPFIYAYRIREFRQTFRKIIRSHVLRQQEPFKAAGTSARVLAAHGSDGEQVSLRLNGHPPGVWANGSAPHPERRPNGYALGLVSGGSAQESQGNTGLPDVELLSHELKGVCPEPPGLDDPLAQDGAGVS

| SMILES | IC50 (A2A receptor) | Hepatocyte Clint [1] | Predicted CLh (Human hepatocytes) | Hepatocyte Clint (Human hepatocytes) | Predicted CLh (Rat hepatocytes) | Hepatocyte Clint (Rat hepatocytes) | hepatocyte CLint at 0.5 μM [2] | Cmax [3, 6] | Tmax [3, 7] | IC50 (hERG potassium channel) | Total CLsystemic in plasma ([4]; Rat, Table 6) | Vd ([4]; intravenous, Rat, Table 6) | half-life [4, 8] | bioavailability [4, 9] | bioavailability [4, 10] | Distribution relative to TBW ([4]; rats & mice) | fraction unbound at 18 h, 10 µM [5] | also measured |
| --- | --- | --- | --- | --- | --- | --- | --- | --- | --- | --- | --- | --- | --- | --- | --- | --- | --- | --- |
| Cc1cccc(CCNc2nc3c(C)c(C)nn3c(N)c2C#N)n1 [Example 13, 7-amino-5-((2-(6-methylpyridin-2-yl)ethyl)amino)-2,3-dimethylpyrazolo[1,5-a]pyrimidine-6-carbonitrile] | 300 nM | < 8.2 µL/min/1e6 cells | 12 mL/min/kg | <8.2 μl/min/10^6 | 41 mL/min/kg | 34 μl/min/10^6 | 34 µL/min/1e6 cells | 236 ng/mL | 12 min | > 100000 nM | 69 mL/min/kg | 1.4 L/kg | 24.6 min | < 1% | < 5% | 2 × TBW | 0.0964 | Co (head Co*/) ([4]; Rat, i.v, 3 mg/kg): 2242 ng/m; clearance ([4]; iv, Rat, i.v, 3 mg/kg): 69 ± 9 mL/min/kg; Vd ([4]; iv, Rat, i.v, 3 mg/kg): 1.4 L/kg; half-life ([4]; iv, Rat, i.v, 3 mg/kg, read-out: t1/2 (converted)): 24 min; Cmax ([4]; po, Rat, 10 mg/kg): 4.2 ng/mL; Tmax ([4]; po, Rat, 10 mg/kg): 12 min; bioavailability ([4]; po, Rat, oral vs IV bolus, doses per compound, read-out: % F (bioavailability)): < 1% |
| CCc1c(C)nn2c(N)c(C#N)c(NCCc3ccn(C4(CO)CC4)n3)nc12 [Example 39, 7-amino-3-ethyl-5-((2-(1-(1-(hydroxymethyl)cyclopropyl)-1H-pyrazol-3-yl)ethyl)amino)-2-methylpyrazolo[1,5-a] pyrimidine-6-carbonitrile] | 120 nM | < 8.2 µL/min/1e6 cells | 12 mL/min/kg | <8.2 μl/min/10^6 | 23 mL/min/kg | <8.2 μl/min/10^6 | < 8.2 µL/min/1e6 cells | 3300 ng/mL | 12 min | > 100000 nM | 90 mL/min/kg | 2.4 L/kg | 72 min | 27% | 27% | 2 × TBW | 0.249 | clearance [3, 11]: 58 ± 14 mL/min/kg; half-life [3, 11]: 54 min; Vd ([3]; CD1, mouse, plasma, iv, i.v, 15 mg/kg, read-out: Vss): 1 L/kg; bioavailability ([3]; CD1, mouse, plasma, oral 30 mg/kg vs IV bolus 15 mg/kg, read-out: % F (bioavailability)): 15%; Co (head Co*/) ([3]; i.v, 15 mg/kg): 2236 ng/m; Oral exposure in mice ([3]; oral, compared with Example 13): High oral exposure; Co (head Co*/) ([4]; Rat, i.v, 15 mg/kg): 8676 ng/m; clearance ([4]; iv, Rat, i.v, 15 mg/kg): 90 ± 15 mL/min/kg; Vd ([4]; iv, Rat, i.v, 15 mg/kg): 2.4 L/kg; half-life ([4]; iv, Rat, i.v, 15 mg/kg, read-out: t1/2 (converted)): 72 min; Cmax ([4]; po, Rat, 100 mg/kg): 4100 ng/mL; Tmax ([4]; po, Rat, 100 mg/kg): 12 min; Total CL relative to hepatic clearance ([4]; rats & mice): 1.6 × |
| CCc1c(C)nn2c(N)c(C#N)c(NCCc3ccn(C4COCC4CO)n3)nc12 (single isomer, unassigned; (-)) [Example 122b, (−)-7-amino-3-ethyl-5-((2-(1-(4-(hydroxymethyl)tetrahydrofuran-3-yl)-1H-pyrazol-3-yl)ethyl)amino)-2-methyl pyrazolo[1,5-a]pyrimidine-6-carbonitrile] | 130 nM | < 4.1 µL/min/1e6 cells | 8.6 mL/min/kg | <4.1 μl/min/10^6 | 16 mL/min/kg | 4.7 μl/min/10^6 | 4.7 µL/min/1e6 cells |  |  | > 100000 nM | 78 mL/min/kg | 1.6 L/kg | 19.8 min | 21% |  |  | 0.139 | AUC(0-t) ([3]; CD1, mouse, plasma, 100 mg/kg oral): 10500 ng·h/mL; Cmax ([3]; CD1, mouse, plasma, 100 mg/kg, 100 mg/kg oral, read-out: C. (Cmax)): 13800 ng/mL; Tmax ([3]; CD1, mouse, plasma, 100 mg/kg, 100 mg/kg oral, read-out: Tmax): 15 min; Cmax ([3]; CD1, mouse, plasma, 100 mg/kg, p.o, 100 mg/kg, read-out: Cmax (head Co*/)): 13800 ng/mL; Tmax ([3]; CD1, mouse, plasma, 100 mg/kg, p.o, 100 mg/kg, read-out: Tmax (head Tma)): 12 min; Total plasma systemic clearance (CL) relative to hepatic blood flow ([4]; Rat, IV bolus): 1.3 ×; Co (head Co*/) ([4]; Rat, i.v, 5 mg/kg): 4169 ng/m; clearance ([4]; iv, Rat, i.v, 5 mg/kg): 78 ± 17 mL/min/kg; Vd ([4]; iv, Rat, i.v, 5 mg/kg): 1.58 L/kg; half-life ([4]; iv, Rat, i.v, 5 mg/kg, read-out: t1/2 (converted)): 18 min; Cmax ([4]; po, Rat, 30 mg/kg): 983 ng/mL; Tmax ([4]; po, Rat, 30 mg/kg): 30 min; bioavailability ([4]; oral, 30 mg/kg, Rat, oral vs IV bolus, doses per compound, read-out: % F (bioavailability)): 21% |
